How the values were obtained:
GSPT1 protein = molecular target: T1, GSPT1 protein (Homo sapiens, UniProt P15170); test: Degradation of GSPT1 protein in NB-4 cells (Western blot); type: cell-based; conditions: NB-4 cells, compound 1 μM, 6 h; read-out: GSPT1 degradation
T1 construct: The whole cell lysate was prepared using a RIPA lysis buffer; endogenous in cells; host or cells: NB-4 cells
Protocol: 150 μL of DMSO and the compounds (1 μM) were added, and the mixture was incubated in an incubator at 5% CO2 and 37° C. for 6 h. The cells were centrifuged, and the culture medium was discarded. PBS was added for washing and then discarded. The whole cell lysate was prepared using a RIPA lysis buffer containing a protease inhibitor cocktail and a phosphatase inhibitor, and incubated on ice for 30 min. The mixture was centrifuged, and the cell debris was discarded. The whole cell lysate supernatant was collected and transferred to a fresh EP tube. Samples were prepared using a loading buffer after a BCA protein assay. The samples were incubated in a metal bath at 100° C. for 10 min.
The samples were electrophoretically separated from proteins on a 4-20% precast gel (SDS-PAGE gel), transferred to a PVDF membrane, blocked with 5% NFDM/TBST for 1 h at room temperature, co-incubated overnight at 4° C. with the primary antibody, and co-incubated for 2 h at room temperature with the secondary antibody on the next day. The signals were detected on the […]™ imaging system.

MV-4-11 cells = test: Antiproliferative activity against MV-4-11 cells (CellTiter-Glo, 72 h); type: cell-based; conditions: Homo sapiens, MV4-11; MV-4-11 cells, 72 h; read-out: Antiproliferative activity IC50
Protocol: MV411 cells in the logarithmic growth phase were diluted in a medium (RPMI+10% FBS) and plated at 5,000 cells/well in 96-well whole black plates (WHB) with 50 μL/well. After plating, the plates were incubated in an incubator at 5% CO2 and 37° C. for 24 h before the compounds were added. The compounds were prepared into a 10 mM stock solution in DMSO and diluted in a culture medium to the desired concentrations (a final DMSO concentration of 0.2%). […] The plates were incubated at 5% CO2 and 37° C. for 72 h. After the incubation was complete, the plates were equilibrated at room temperature for 30 min. CellTiter-Glo® Reagent (Promega G7573) was added at 100 μL/well. The plates were shaken for 12 min on a microplate shaker. The luminescence value was measured at room temperature by the GloMax navigator (Promega GM2010).

T1 sequence (P15170 whole entry): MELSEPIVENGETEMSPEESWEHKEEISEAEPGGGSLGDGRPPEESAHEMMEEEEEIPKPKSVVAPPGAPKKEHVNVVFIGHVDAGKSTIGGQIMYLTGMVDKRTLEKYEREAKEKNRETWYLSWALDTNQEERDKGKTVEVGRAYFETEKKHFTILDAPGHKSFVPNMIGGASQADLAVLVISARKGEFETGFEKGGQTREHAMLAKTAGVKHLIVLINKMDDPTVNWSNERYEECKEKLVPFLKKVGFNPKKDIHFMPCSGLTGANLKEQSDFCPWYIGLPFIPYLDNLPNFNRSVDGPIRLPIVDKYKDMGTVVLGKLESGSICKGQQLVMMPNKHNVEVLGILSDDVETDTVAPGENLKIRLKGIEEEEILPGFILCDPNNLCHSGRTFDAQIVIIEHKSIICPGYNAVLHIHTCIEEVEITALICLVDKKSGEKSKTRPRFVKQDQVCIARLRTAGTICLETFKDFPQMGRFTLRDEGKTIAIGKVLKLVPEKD

O=C1CCC(N2Cc3c(ccc(CNC(=O)c4ccc5ccccc5n4)c3F)C2=O)C(=O)N1 (centres unmarked) [FDAB-66] gave an inhibition at 1 µM (GSPT1 protein) greater than 80% and an IC50 (MV-4-11 cells) of 10 to 100 nM.

CCCc1ccc(CNCc2ccc3c(c2F)CN(C2CCC(=O)NC2=O)C3=O)cc1 (centres unmarked) [FDAB-167] gave an inhibition at 1 µM (GSPT1 protein) greater than 80% and an IC50 (MV-4-11 cells) of 1 to 10 nM.

O=C1CCC(N2Cc3cc(CNC(=O)C4CCCCC4)c(F)cc3C2=O)C(=O)N1 (centres unmarked) [FDAB-42] gave an inhibition at 1 µM (GSPT1 protein) of less than 25% and an IC50 (MV-4-11 cells) greater than 1000 nM.

For O=C1CCC(N2Cc3c(ccc(CNC(=O)c4cc5cc(F)ccc5o4)c3Cl)C2=O)C(=O)N1 (centres unmarked) [FDAB-69], the inhibition at 1 µM (GSPT1 protein) was 50 to 80% and the IC50 (MV-4-11 cells) was 1 to 10 nM.

NS(=O)(=O)c1cc(C(=O)NCc2ccc3c(c2F)CN(C2CCC(=O)NC2=O)C3=O)ccc1Cl (centres unmarked) [FDAB-115] showed an inhibition at 1 µM (GSPT1 protein) of less than 25% and an IC50 (MV-4-11 cells) greater than 1000 nM.

Molecule N#Cc1cc(C(=O)NCc2ccc3c(c2F)CN(C2CCC(=O)NC2=O)C3=O)ccc1Cl (centres unmarked) [FDAB-82] has an inhibition at 1 µM (GSPT1 protein) of less than 25% and an IC50 (MV-4-11 cells) greater than 1000 nM.

In the case of NCc1cc(F)cc2c1CN(C1CCC(=O)NC1=O)C2=O (centres unmarked) [FDAB-17], the inhibition at 1 µM (GSPT1 protein) is reported as less than 25% and the IC50 (MV-4-11 cells) is reported as 100 to 1000 nM.

O=C1CCC(N2Cc3c(ccc(CNC(=O)c4ccc(Cl)c(F)c4)c3Cl)C2=O)C(=O)N1 (centres unmarked) [FDAB-118] was tested, and the inhibition at 1 µM (GSPT1 protein) was 50 to 80% and the IC50 (MV-4-11 cells) was 10 to 100 nM.

O=C(Cc1cc2ccccc2s1)NCc1cc(F)cc2c1CN(C1CCC(=O)NC1=O)C2=O (centres unmarked) [FDAB-169] showed an inhibition at 1 µM (GSPT1 protein) of 50 to 80% and an IC50 (MV-4-11 cells) of 10 to 100 nM.

For O=C1CCC(N2Cc3cc(CNC(=O)c4cc5cc(Cl)ccc5o4)c(F)cc3C2=O)C(=O)N1 (centres unmarked) [FDAB-20], the inhibition at 1 µM (GSPT1 protein) was greater than 80% and the IC50 (MV-4-11 cells) was 1 to 10 nM.

For O=C1CCC(N2Cc3c(ccc(CNC(=O)c4ccc(Cl)cc4F)c3F)C2=O)C(=O)N1 (centres unmarked) [FDAB-117], the inhibition at 1 µM (GSPT1 protein) was greater than 80% and the IC50 (MV-4-11 cells) was 1 to 10 nM.

For NCc1cc2c(cc1Cl)C(=O)N(C1CCC(=O)NC1=O)C2 (centres unmarked) [FDAB-15], the inhibition at 1 µM (GSPT1 protein) was less than 25% and the IC50 (MV-4-11 cells) was greater than 1000 nM.

In the case of O=C(CSc1ccncc1)NCc1ccc2c(c1F)CN(C1CCC(=O)NC1=O)C2=O (centres unmarked) [FDAB-155], the inhibition at 1 µM (GSPT1 protein) is reported as less than 25% and the IC50 (MV-4-11 cells) is reported as greater than 1000 nM.

In the case of O=C(CCOc1ccccc1)NCc1ccc2c(c1F)CN(C1CCC(=O)NC1=O)C2=O (centres unmarked) [FDAB-154], the inhibition at 1 µM (GSPT1 protein) is reported as greater than 80% and the IC50 (MV-4-11 cells) is reported as 1 to 10 nM.

O=C1CCC(N2Cc3cc(CNC(=O)c4cnco4)c(F)cc3C2=O)C(=O)N1 (centres unmarked) [FDAB-43] showed an inhibition at 1 µM (GSPT1 protein) of less than 25% and an IC50 (MV-4-11 cells) greater than 1000 nM.

For O=C(CCc1cccc2ccccc12)NCc1ccc2c(c1F)CN(C1CCC(=O)NC1=O)C2=O (centres unmarked) [FDAB-138], the inhibition at 1 µM (GSPT1 protein) was greater than 80% and the IC50 (MV-4-11 cells) was less than 1 nM.

Work on O=C1CCC(N2Cc3c(ccc(CNC(=O)c4ccc5c(c4)C(=O)CC5)c3F)C2=O)C(=O)N1 (centres unmarked) [FDAB-106] yielded an inhibition at 1 µM (GSPT1 protein) greater than 80% and an IC50 (MV-4-11 cells) of 10 to 100 nM.

O=C(CCSC(=S)SCc1ccccc1)NCc1ccc2c(c1F)CN(C1CCC(=O)NC1=O)C2=O (centres unmarked) [FDAB-161] showed an inhibition at 1 µM (GSPT1 protein) greater than 80% and an IC50 (MV-4-11 cells) of less than 1 nM.

O=C1CCC(N2Cc3c(ccc(CNCc4ccc(Cl)cc4)c3F)C2=O)C(=O)N1 (centres unmarked) [FDAB-168] was tested, and the inhibition at 1 µM (GSPT1 protein) was greater than 80% and the IC50 (MV-4-11 cells) was 10 to 100 nM.

O=C(C#Cc1ccc(Cl)cc1)NCc1ccc2c(c1F)CN(C1CCC(=O)NC1=O)C2=O (centres unmarked) [FDAB-145] was tested, and the inhibition at 1 µM (GSPT1 protein) was greater than 80% and the IC50 (MV-4-11 cells) was less than 1 nM.

CCCCOc1ccc(CC(=O)NCc2ccc3c(c2F)CN(C2CCC(=O)NC2=O)C3=O)cc1 (centres unmarked) [FDAB-132] gave an inhibition at 1 µM (GSPT1 protein) greater than 80% and an IC50 (MV-4-11 cells) of less than 1 nM.

Molecule O=C1CCC(N2Cc3cc(CNC(=O)c4ccncc4)c(F)cc3C2=O)C(=O)N1 (centres unmarked) [FDAB-31] has an inhibition at 1 µM (GSPT1 protein) of less than 25% and an IC50 (MV-4-11 cells) greater than 1000 nM.

With COc1ccc(C(=O)NCc2ccc3c(c2F)CN(C2CCC(=O)NC2=O)C3=O)cc1OC (centres unmarked) [FDAB-102] the inhibition at 1 µM (GSPT1 protein) was less than 25% and the IC50 (MV-4-11 cells) was greater than 1000 nM.

NCc1ccc2c(c1F)CN(C1CCC(=O)NC1=O)C2=O (centres unmarked) [FDAB-3] gave an inhibition at 1 µM (GSPT1 protein) of less than 25% and an IC50 (MV-4-11 cells) greater than 1000 nM.

[2H]c1c([2H])c([2H])c(C(=O)NCc2ccc3c(c2F)CN(C2CCC(=O)NC2=O)C3=O)c([2H])c1[2H] (centres unmarked) [FDAB-88] gave an inhibition at 1 µM (GSPT1 protein) of less than 25% and an IC50 (MV-4-11 cells) greater than 1000 nM.

For O=C(CCP(c1ccccc1)c1ccccc1)NCc1ccc2c(c1F)CN(C1CCC(=O)NC1=O)C2=O (centres unmarked) [FDAB-160], the inhibition at 1 µM (GSPT1 protein) was greater than 80% and the IC50 (MV-4-11 cells) was less than 1 nM.

O=C1CCC(N2Cc3c(ccc(CNC(=O)c4ccc(N5CCCC5)cc4)c3F)C2=O)C(=O)N1 (centres unmarked) [FDAB-110] gave an inhibition at 1 µM (GSPT1 protein) greater than 80% and an IC50 (MV-4-11 cells) of less than 1 nM.

For CCCOc1ccc(/C=C/C(=O)NCc2ccc3c(c2F)CN(C2CCC(=O)NC2=O)C3=O)cc1 (centres unmarked) [FDAB-143], the inhibition at 1 µM (GSPT1 protein) was greater than 80% and the IC50 (MV-4-11 cells) was less than 1 nM.
